One may read the IC50 as the concentration at which inhibition is half-maximal. Higher therefore signals a need for much substance.

In brackets after ≈: the same amount, converted by molar mass.

For one assay, the target named is T1, neuraminidase (NA), neuraminidase inhibitors screen kit.
T1 construct: enzyme of a commercial Beyotime screening kit
It is filed as biochemical.
Conditions: not given
Consider `O=C(O)[C@H]1O[C@@H](Oc2cc3oc(-c4ccc(O)cc4)cc(=O)c3c(O)c2O)[C@H](O)[C@@H](O)[C@@H]1O` [compound 5, scutellarin], for which the IC50 is 321.8 ± 62.8 µg/mL (≈ 696 µM).

The assay is the same for the next values; noted with them: 2'-(4-methylumbelliferyl)-alpha-D-N-acetylneuraminic acid substrate; 37 °C; 30 min.
As to `O=c1cc(-c2ccccc2)oc2cc(O)cc(O)c12` [compound 24, chrysin], the 50% inhibitory concentration (IC50) was found to be 402.80 ± 67.8 µg/mL (≈ 1580 µM). On the same count and under the same terms, the value for `O=c1cc(-c2ccccc2)oc2cc(O)c(O)c(O)c12` [compound 22, baicalein] was 397.7 ± 9.91 µg/mL (≈ 1470 µM); that for `COc1c(O)cc(O)c2c(=O)cc(-c3ccccc3)oc12` [compound 23, wogonin] was 331.1 ± 49.4 µg/mL (≈ 1160 µM). The same measure, in the same setting: the value for `O=C(O)[C@H]1O[C@@H](Oc2cc(O)c3c(=O)cc(-c4ccccc4)oc3c2)[C@H](O)[C@@H](O)[C@@H]1O` [compound 15, chrysin-7-O-glucuronide] was 493.6 ± 64.2 µg/mL (≈ 1150 µM); that for `O=c1cc(-c2ccc(O)cc2)oc2cc(O)c(O)c(O)c12` [compound 10, scutellarein] was 664.5 ± 26.2 µg/mL (≈ 2320 µM); that for `COc1c(O)cc2oc(-c3ccccc3)cc(=O)c2c1O` [compound 25, oroxylin A] was more than 1000 µg/mL. On the same count and under the same terms, the figure for `O=C(O)[C@H]1O[C@@H](Oc2cc3oc(-c4ccccc4)cc(=O)c3c(O)c2O)[C@H](O)[C@@H](O)[C@@H]1O` [compound 11, baicalin] is 267.3 ± 37.8 µg/mL (≈ 599 µM); for `COc1c(O[C@@H]2O[C@H](C(=O)O)[C@@H](O)[C@H](O)[C@H]2O)cc(O)c2c(=O)cc(-c3ccccc3)oc12` [compound 19, wogonoside] it is 428.3 ± 18.9 µg/mL (≈ 930 µM).

The values are drawn from publication PMC5423611, “An activity-integrated strategy of the identification, screening and determination of potential neuraminidase inhibitors from Radix Scutellariae” (PLoS ONE, 2017).
